Some test systems named below: A549; MOLT-4; KM-20L2; HCC 2998; SW-620; SNB-19; ACHN; SK-MEL-28; HL-60; M14; 786-0; KM12; HCT-15; SF-268; U-251; SK-MEL-5; UACC-257; SK-MEL-2.
Experiment in all cases: inhibition of tumour cell growth, NCI panel, 48 h

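Dose response: 5 concentrations. Exposure: 48 h. Format: 96-well plates. Endpoint: linear interpolation; highest concentration if not reached. GI50 is the concentration that inhibits growth by half.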 The source made the active and inactive calls. Cut-off read from the data, not from the text of the source: active = GI50 up to about 1.1 µM and inactive = higher.

On to `CC1(C)C(=NN=C(N)N)C(C)(C)C1=NN=C(N)N`, for which the GI50 with A549, with MOLT-4, with KM-20L2, in the assay on HCC 2998, in the assay with SW-620 and in the assay on SNB-19 was > 100 µM (inactive) in each case. Moreover, the GI50 in the assay on ACHN, with SK-MEL-28, in the assay on HL-60, in the assay on M14, in the assay with 786-0 and with KM12 was > 100 µM (inactive) in each case. For the same compound, the GI50 in the assay on HCT-15 was more than 100 µM; with SF-268, > 100 µM (inactive); in the assay with U-251, > 100 µM (inactive); in the assay with SK-MEL-5 it was > 100 µM (inactive); in the assay with UACC-257, > 100 µM (inactive).
With `CC1(C)CC(=O)C/C(=N/c2ccc([N+](=O)[O-])cc2)C1`, the GI50 in the assay with A549 was > 100 µM (inactive); in the assay with MOLT-4 it was 58.6 µM (inactive); in the assay with KM-20L2, > 100 µM (inactive); in the assay on HCC 2998 it was > 100 µM (inactive); with ACHN it was > 100 µM (inactive); in the assay on SK-MEL-28, > 100 µM (inactive). The GI50 is 80.5 µM (inactive) in the assay with HL-60; > 100 µM (inactive) in the assay with M14; > 100 µM (inactive) with 786-0; > 100 µM (inactive) in the assay with KM12; 64.3 µM in the assay on HCT-15; > 100 µM (inactive) in the assay on SF-268. Further, the GI50 was 16.3 µM (inactive) with U-251, > 100 µM (inactive) with SK-MEL-5, > 100 µM (inactive) with UACC-257 and > 100 µM (inactive) in the assay on SK-MEL-2.
As for `CC1(C)O[C@@H](CCl)C[C@@H](C#N)O1`, the GI50 in the assay with A549, with MOLT-4, in the assay with KM-20L2, in the assay on HCC 2998, in the assay on SW-620 and with SNB-19 was > 100 µM (inactive) in each case. The GI50 with ACHN, in the assay with SK-MEL-28, with HL-60, in the assay with M14, in the assay on 786-0 and in the assay with KM12 was > 100 µM (inactive) each time. For the same compound, the GI50 with SF-268, in the assay with U-251, in the assay with SK-MEL-5, with UACC-257 and with SK-MEL-2 was > 100 µM (inactive) each time.
For the compound `O=C1N(c2ccccc2)C(=O)C2(SC=NN2Cc2ccccc2)N1c1ccccc1` (configuration not stated), the GI50 with A549, with MOLT-4, with KM-20L2, in the assay with HCC 2998, with SW-620 and in the assay on SNB-19 was > 100 µM (inactive) each time. The GI50 is > 100 µM (inactive) in the assay on ACHN; > 100 µM (inactive) in the assay with SK-MEL-28; 51.2 µM (inactive) in the assay with HL-60; > 100 µM (inactive) in the assay on M14; > 100 µM (inactive) in the assay with 786-0; > 100 µM (inactive) in the assay on KM12. Further, the GI50 in the assay with SF-268, in the assay with U-251, in the assay with SK-MEL-5 and in the assay with UACC-257 was > 100 µM (inactive) each time.
With `Cc1cc(=O)c2c(O)cc3c(c2o1)CC=C(COC1OC(COC2OC(CO)C(O)C(O)C2O)C(O)C(O)C1O)CO3` (configuration not stated), the GI50 in the assay on A549, in the assay with MOLT-4, in the assay on KM-20L2, in the assay with HCC 2998, in the assay on SW-620 and in the assay on SNB-19 was > 100 µM (inactive) throughout. Besides, the GI50 is > 100 µM (inactive) in the assay on ACHN; > 100 µM (inactive) in the assay on SK-MEL-28; > 100 µM (inactive) in the assay on M14; > 100 µM (inactive) in the assay with 786-0; > 100 µM (inactive) with KM12; more than 100 µM with HCT-15. The GI50 with SF-268, with U-251, in the assay on SK-MEL-5, in the assay with UACC-257 and in the assay on SK-MEL-2 was > 100 µM (inactive) throughout.
On to `CC#C[I+]c1ccccc1`, for which the GI50 is 63.8 µM (inactive) in the assay on A549; 12.1 µM (inactive) in the assay with MOLT-4; 17 µM (inactive) with KM-20L2; 20 µM (inactive) in the assay on HCC 2998; 64.6 µM (inactive) in the assay on SNB-19; 15.7 µM (inactive) in the assay on ACHN. Moreover, the GI50 with SK-MEL-28 was 23.6 µM (inactive); in the assay with HL-60, 15 µM (inactive); with M14, 17.3 µM (inactive); in the assay with 786-0, 14.6 µM (inactive); with KM12, 16.5 µM (inactive); in the assay on SF-268, 19.1 µM (inactive). The GI50 is 15 µM (inactive) in the assay on U-251, 23.4 µM (inactive) in the assay with SK-MEL-5, 20.9 µM (inactive) in the assay with UACC-257 and 28.1 µM (inactive) with SK-MEL-2.
Take `CCOc1cccc2ccc[n+](CC)c12`: the GI50 with A549 was 48.6 µM (inactive); with MOLT-4, > 100 µM (inactive); in the assay with KM-20L2, 52.2 µM (inactive); in the assay on HCC 2998 it was > 100 µM (inactive); with SW-620 it was 81.3 µM (inactive); in the assay with SNB-19, > 100 µM (inactive). Moreover, the GI50 was > 100 µM (inactive) with ACHN; > 100 µM (inactive) in the assay with SK-MEL-28; > 100 µM (inactive) with M14; > 100 µM (inactive) with 786-0; 49.7 µM (inactive) in the assay on KM12; 12.2 µM (inactive) in the assay with SF-268. For the same compound, the GI50 is 45.5 µM (inactive) with SK-MEL-5 and 57.9 µM (inactive) in the assay with UACC-257.
In the case of `COc1cc2c(oc(=O)c3c4occc4cc(OC)c23)c2cccc(O)c12`, the GI50 in the assay on A549, in the assay on MOLT-4, with KM-20L2, with HCC 2998, in the assay with SW-620 and in the assay on SNB-19 was > 100 µM (inactive) throughout. Also, the GI50 in the assay with ACHN, in the assay on SK-MEL-28, with HL-60, with M14, in the assay with 786-0 and in the assay with KM12 was > 100 µM (inactive) throughout. Besides, the GI50 in the assay with HCT-15 is more than 100 µM; with SF-268 it was > 100 µM (inactive); in the assay with U-251, > 100 µM (inactive); in the assay on SK-MEL-5, > 100 µM (inactive); with UACC-257 it was > 100 µM (inactive).
`CC(=O)c1cccc(NCn2nnc3ccccc32)c1`: the GI50 in the assay on A549, in the assay with MOLT-4, in the assay with KM-20L2, in the assay on HCC 2998, in the assay on SW-620 and in the assay on SNB-19 was > 100 µM (inactive) throughout. For the same compound, the GI50 in the assay on ACHN is > 100 µM (inactive); in the assay on SK-MEL-28, > 100 µM (inactive); in the assay on HL-60, 61 µM (inactive); with M14 it was > 100 µM (inactive); in the assay on 786-0, > 100 µM (inactive); in the assay with KM12, > 100 µM (inactive). Moreover, the GI50 is more than 100 µM with HCT-15; > 100 µM (inactive) with SF-268; > 100 µM (inactive) with U-251; > 100 µM (inactive) in the assay on UACC-257; > 100 µM (inactive) with SK-MEL-2.
